Tests used:
osteoarthritic pain = settings: intra-articular injection; cited from earlier work
[1] = Freeze fracture microscopy (FF-TEM) of the compositions; type: physicochemical; settings: freeze-fracture transmission electron microscope
Experimental: The compositions were subsequently examined using a freeze-fracture transmission electron microscope (FF-TEM). FF-TEM samples of each formulation were prepared in accordance with techniques described in chapter 5 of “Low Temperature Microscopy and Analysis” by Patrick Echlin (1992). The sample was mounted between thin metal sheets and rapidly cooled with liquid propane to −196° C. The sample was then transferred under liquid nitrogen to a pre-cooled cold stage of a Balzers BAF-301 high vacuum freeze-etch unit (Techno Trade International, Lichtenstein). The sample was fractured at low temperature and etched at −150° C. to remove a surface layer of water. The fracture faces were shadowed at an angle of 45° with platinum to create selective electron contrast. A thin layer of carbon was deposited over the entire fracture surface to create a continuous replica. The replicas were then examined using a JEOL 100CX2 electron microscope (Japanese Electronic Optical Laboratories, Japan).

[2] = in vivo; cited from earlier work

Row | Structures seen by FF-TEM [1] | Compound | pain relief (osteoarthritic pain) | overall turnover rate t1/2 [2]
1 | – | CCCCCCCCCCCCCCCC(=O)OC[C@H](COP(=O)([O-])OCC[N+](C)(C)C)OC(=O)CCCCCCCCCCCCCCC [DPPC, 1,2-dipalmitoyl-sn-glycero-3-phosphocholine] | reduce osteoarthritic pain | –
2 | presence of string like structures | Hyaluronic acid | – | 0.5 to a few

Reference: patent US20050123593A1, “Liposomal encapsulation of glycosaminoglycans for the treatment of arthritic joints” (priority 2001, published 2005)
